Assay results: PMC8187479, “Sugar phosphate activation of the stress sensor eIF2B” (Nature Communications, 2021)
Where “and” joins values, the source holds several entries; their conditions need not be identical. Identical values can stand only once. Like-named read-outs stand apart in the source and are kept apart here.

Columns and labels:
eIF2B = biological target: T1, eIF2B (Homo sapiens, UniProt P49770+Q14232+Q9UI10); assay: eIF2B GEF activity assay, unbiased metabolite screen (Bodipy-FL-GDP release); type: biochemical; settings: 10 μM metabolite
T1 construct: made in house; host or cells: eIF2Bα: E. coli BL21(DE3)
Description: Bodipy-FL-GDP-loaded eIF2 was used as a substrate for recombinant eIF2B. The assay was performed in 384-well plates. Reactions were read on a SpectraMax i3x plate reader (Molecular Devices) using the instrument’s Softmax Pro software with the following parameters: plate temperature = 25 °C; excitation wavelength = 485 nm (15 nm width); emission wavelength = 535 nm (25 nm width); read duration = 30 min at 45 s intervals. Data were analyzed in Prism. GDP release half-lives were calculated by fitting single-exponential decay curves.
For unbiased screening, MIDAS metabolite libraries at 10 mM stock concentration were dispensed into wells of the assay plate using an Echo Acoustic Liquid Handler (Labcyte). […] A single well was run for each metabolite. […] For targeted experiments with HEK293T lysates, the following conditions were used: 50 nM Bodipy-FL-GDP-loaded eIF2, 0.1 mM GDP, 1 mg/ml BSA, 0.1 or 0.3 mg/ml lysates.

eIF2Bα [1] = biological target: T2, eIF2Bα (Homo sapiens, UniProt Q14232); assay: MIDAS (mass spectrometry integrated with equilibrium dialysis) metabolite binding screen; settings: for MIDAS result (enrichment in the protein chamber / hit status): eIF2Bα2, 50 μM per metabolite pool, 40 h dialysis at 4 °C
T2 construct: made in house; host or cells: E. coli BL21(DE3)
T2 sequence (Q14232 1-305): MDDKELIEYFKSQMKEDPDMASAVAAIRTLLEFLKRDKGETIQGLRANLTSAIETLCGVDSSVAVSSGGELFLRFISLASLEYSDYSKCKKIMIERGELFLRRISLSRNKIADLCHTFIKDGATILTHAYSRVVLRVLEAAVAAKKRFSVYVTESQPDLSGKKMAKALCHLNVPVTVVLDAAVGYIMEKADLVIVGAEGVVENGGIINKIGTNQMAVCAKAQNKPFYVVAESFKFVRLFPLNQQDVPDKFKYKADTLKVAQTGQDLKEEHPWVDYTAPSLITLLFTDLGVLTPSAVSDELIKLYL
Method in brief: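 Hits called at Storey q < 0.1 on z-scores of PCA-corrected log2 fold change between protein and metabolite chambers, quantified by FIA-MS in triplicate.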

eIF2Bα [2] = biological target: T2, eIF2Bα; assay: Differential scanning fluorimetry (Protein Thermal Shift), eIF2Bα Tm; type: binding; settings: individual replicates Rep 1-4, control without metabolite about 64.1
Description: The effect of metabolite binding on eIF2Bα Tm was assessed using the Protein Thermal Shift assay (Thermo Fisher), following manufacturer’s instructions. Briefly, reaction conditions for each 20 μL reaction were: 1.1 μg (1.5 μM) of eIF2Bα, 5 μl Thermal Shift buffer, 1X Thermal Shift dye, and metabolites in dose response. Reactions were run in 384-well format on a QuantStudio 6 Flex instrument (Thermo Fisher). The resulting melt curves were analyzed using Protein Thermal Shift Software, and eIF2Bα Tms for each condition were calculated by fitting to the Boltzmann function.

[3] = MIDAS metabolite binding screen with eIF2Bα, sheet "eIF2Ba"
[4] = MIDAS screen, sheet eIF2Ba, metabolites screened in pools 1-4, p-value and q-value given

T1 sequence (P49770 whole entry, one chain of several): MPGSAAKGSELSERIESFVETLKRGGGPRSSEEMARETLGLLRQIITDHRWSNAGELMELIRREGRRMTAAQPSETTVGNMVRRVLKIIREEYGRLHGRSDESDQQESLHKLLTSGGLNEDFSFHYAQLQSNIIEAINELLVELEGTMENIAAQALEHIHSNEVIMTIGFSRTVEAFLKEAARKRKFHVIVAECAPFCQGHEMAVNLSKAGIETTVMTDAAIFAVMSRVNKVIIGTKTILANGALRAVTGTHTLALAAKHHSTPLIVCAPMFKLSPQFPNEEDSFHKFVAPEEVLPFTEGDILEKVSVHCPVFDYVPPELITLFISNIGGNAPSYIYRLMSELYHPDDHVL
T1 sequence (Q9UI10 whole entry, one chain of several): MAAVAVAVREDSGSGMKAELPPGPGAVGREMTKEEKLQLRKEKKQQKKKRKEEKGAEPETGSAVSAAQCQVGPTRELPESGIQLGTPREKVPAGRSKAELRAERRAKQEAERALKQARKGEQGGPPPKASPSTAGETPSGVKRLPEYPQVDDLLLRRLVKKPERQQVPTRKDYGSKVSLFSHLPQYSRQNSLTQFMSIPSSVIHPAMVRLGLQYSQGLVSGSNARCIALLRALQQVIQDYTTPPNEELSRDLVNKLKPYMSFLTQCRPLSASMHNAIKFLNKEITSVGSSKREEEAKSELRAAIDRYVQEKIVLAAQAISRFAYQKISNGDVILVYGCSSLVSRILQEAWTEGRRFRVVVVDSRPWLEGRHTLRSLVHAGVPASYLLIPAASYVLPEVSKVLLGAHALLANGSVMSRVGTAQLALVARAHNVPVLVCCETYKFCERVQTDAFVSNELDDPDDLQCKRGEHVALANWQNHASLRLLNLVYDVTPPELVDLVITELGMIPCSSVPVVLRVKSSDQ
T1 sequence (Q9NR50 whole entry partner, one chain of several): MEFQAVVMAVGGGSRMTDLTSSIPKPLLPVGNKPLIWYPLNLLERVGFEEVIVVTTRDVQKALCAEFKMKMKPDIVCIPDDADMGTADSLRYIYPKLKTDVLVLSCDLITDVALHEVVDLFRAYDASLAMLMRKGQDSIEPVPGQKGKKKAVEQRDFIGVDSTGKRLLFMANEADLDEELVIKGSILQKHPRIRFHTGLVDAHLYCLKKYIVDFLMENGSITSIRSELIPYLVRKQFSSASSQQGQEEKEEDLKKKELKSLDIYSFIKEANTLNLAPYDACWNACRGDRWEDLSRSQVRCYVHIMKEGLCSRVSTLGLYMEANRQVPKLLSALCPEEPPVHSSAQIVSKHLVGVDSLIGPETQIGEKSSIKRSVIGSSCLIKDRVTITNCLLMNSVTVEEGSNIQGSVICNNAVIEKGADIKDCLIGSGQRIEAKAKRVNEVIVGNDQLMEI
T1 sequence (Q13144 whole entry partner, one chain of several): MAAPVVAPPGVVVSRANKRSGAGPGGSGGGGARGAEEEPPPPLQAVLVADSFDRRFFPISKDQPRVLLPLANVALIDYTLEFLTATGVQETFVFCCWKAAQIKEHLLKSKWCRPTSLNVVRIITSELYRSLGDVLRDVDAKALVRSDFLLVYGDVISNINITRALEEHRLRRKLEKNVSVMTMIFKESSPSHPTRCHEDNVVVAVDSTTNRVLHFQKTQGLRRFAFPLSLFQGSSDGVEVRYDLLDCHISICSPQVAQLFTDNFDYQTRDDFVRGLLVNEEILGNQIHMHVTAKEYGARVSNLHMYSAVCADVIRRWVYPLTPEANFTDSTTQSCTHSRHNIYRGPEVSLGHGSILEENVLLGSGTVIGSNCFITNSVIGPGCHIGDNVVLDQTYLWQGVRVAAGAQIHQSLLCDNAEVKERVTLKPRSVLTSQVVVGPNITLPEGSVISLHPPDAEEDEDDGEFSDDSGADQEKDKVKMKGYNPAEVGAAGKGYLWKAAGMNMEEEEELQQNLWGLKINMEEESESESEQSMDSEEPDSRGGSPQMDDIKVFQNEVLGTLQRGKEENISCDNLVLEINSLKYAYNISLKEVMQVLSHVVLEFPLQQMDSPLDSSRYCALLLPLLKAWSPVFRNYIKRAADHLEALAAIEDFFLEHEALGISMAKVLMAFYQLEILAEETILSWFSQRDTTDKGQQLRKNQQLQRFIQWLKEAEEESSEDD

Compound	log2(corrected fold change) (eIF2Bα [1]; [3])	log2(corrected fold change) (eIF2Bα [1]; [4])	also measured
Nc1ncnc2c1ncn2[C@@H]1O[C@H](COP(=O)(O)OP(=O)(O)O)[C@@H](O)[C@H]1O [ADP, Adenosine diphosphate]	-0.09804		effect on eIF2B GEF activity in the screen (eIF2B): a hit in this functional assay screen
O=C(COP(=O)(O)O)[C@@H](O)[C@H](O)[C@H](O)COP(=O)(O)O [Fructose-1,6-bisphosphate]			Tm of eIF2Bα (eIF2Bα [2]; 0.33 mM metabolite): 64.6451 °C and 64.2202 °C and 65.137 °C and 65.0552 °C; Tm of eIF2Bα (eIF2Bα [2]; 1 mM metabolite): 65.6845 °C and 64.643 °C and 66.191 °C and 66.0945 °C; Tm of eIF2Bα (eIF2Bα [2]; 3.3 mM metabolite): 65.4601 °C and 64.9088 °C and 65.6023 °C and 65.9064 °C; Tm of eIF2Bα (eIF2Bα [2]; 10 mM metabolite): 67.1254 °C and 66.1581 °C and 67.3047 °C and 67.21 °C
N[C@@H](Cc1ccc(O)cc1)C(=O)O [L-tyrosine]			MIDAS result (enrichment in the protein chamber / hit status) (eIF2Bα [1]): most enriched metabolite identified; Tm of eIF2Bα (eIF2Bα [2]; 0.33 mM metabolite): 64.527 °C and 64.3045 °C and 63.9825 °C and 63.5986 °C; Tm of eIF2Bα (eIF2Bα [2]; 1 mM metabolite): 65.9465 °C and 65.8614 °C and 65.2637 °C and 64.606 °C; Tm of eIF2Bα (eIF2Bα [2]; 5 mM metabolite): 66.2946 °C and 66.2026 °C and 66.1461 °C and 65.4309 °C
O=C[C@H](O)[C@H](O)[C@H](O)COP(=O)(O)O [Ribose-5-phosphate]			Tm of eIF2Bα (eIF2Bα [2]; 0.33 mM metabolite): 63.6082 °C and 63.1309 °C and 63.9035 °C and 63.9145 °C; Tm of eIF2Bα (eIF2Bα [2]; 1 mM metabolite): 65.8453 °C and 64.5885 °C and 66.0863 °C and 66.0043 °C; Tm of eIF2Bα (eIF2Bα [2]; 3.3 mM metabolite): 65.9356 °C and 65.2316 °C and 66.3491 °C and 65.7067 °C; Tm of eIF2Bα (eIF2Bα [2]; 10 mM metabolite): 67.199 °C and 66.1831 °C and 67.4737 °C and 67.2666 °C
Nc1ncnc2c1ncn2[C@@H]1O[C@H](CSCC[C@H](N)C(=O)O)[C@@H](O)[C@H]1O [S-(5-Adenosyl)-L-homocysteine]		-0.01949	
C[S+](CC[C@H](N)C(=O)O)C[C@H]1O[C@@H](n2cnc3c(N)ncnc32)[C@H](O)[C@@H]1O (stereo partly drawn) [S-(5-Adenosyl)-L-methionine]	0.006892		
C[C@@H](O)C(=O)SC[C@H](NC(=O)CC[C@H](N)C(=O)O)C(=O)NCC(=O)O [S-Lactoylglutathione]	-0.04124		
CNCC(=O)O [Sarcosine]		-0.1398	
O=C(O)CCC(=O)O [Succinic acid]	-0.05121		
CC(C)(COP(=O)(O)OP(=O)(O)OC[C@H]1O[C@@H](n2cnc3c(N)ncnc32)[C@H](O)[C@@H]1OP(=O)(O)O)[C@H](O)C(=O)NCCC(=O)NCCSC(=O)CCC(=O)O [Succinyl coenzyme A]		0.1384	
OC[C@H]1O[C@@](CO)(O[C@H]2O[C@H](CO)[C@@H](O)[C@H](O)[C@H]2O)[C@@H](O)[C@@H]1O [Sucrose]		-0.3372	
NCCS(=O)(=O)O [Taurine]	-0.01154		
Cc1ncc(C[n+]2csc(CCOP(=O)(O)O)c2C)c(N)n1 [Thiamine monophosphate]		0.1425	
Cc1ncc(C[n+]2csc(CCO[P@](=O)(O)OP(=O)(O)O)c2C)c(N)n1 [Thiamine pyrophosphate]	-0.008195		
Cc1ncc(C[n+]2csc(CCO)c2C)c(N)n1 [Thiamine]	0.0196		
Cc1cn([C@H]2C[C@H](O)[C@@H](COP(=O)(O)OP(=O)(O)OP(=O)(O)O)O2)c(=O)[nH]c1=O [Thymidine 5-triphosphate]		0.01939	
Cc1cn([C@H]2C[C@H](O)[C@@H](COP(=O)(O)O)O2)c(=O)[nH]c1=O [Thymidine monophosphate]	-0.007923		
Cc1cn([C@H]2C[C@H](O)[C@@H](CO)O2)c(=O)[nH]c1=O [Thymidine]		0.1162	
Cc1c[nH]c(=O)[nH]c1=O [Thymine]		-0.1153	
O=C(O)[C@@H]1C[C@@H](O)CN1 [Trans-4-Hydroxy-L-proline]	0.008003		
O=C(O)C/C=C/CC(=O)O [Trans-beta-Hydromuconic acid]		0.04348	
NCCc1ccc(O)cc1 [Tyramine]		0.3274	
CC(=O)N[C@H]1[C@@H](OP(=O)(O)OP(=O)(O)OC[C@H]2O[C@@H](n3ccc(=O)[nH]c3=O)[C@H](O)[C@@H]2O)O[C@H](CO)[C@@H](O)[C@@H]1O [UDP-GlcNAc]	-0.0409		
O=C(O)[C@H]1O[C@H](OP(=O)(O)OP(=O)(O)OC[C@H]2O[C@@H](n3ccc(=O)[nH]c3=O)[C@H](O)[C@@H]2O)[C@H](O)[C@@H](O)[C@@H]1O [UDP-Glucuronate]		-0.09562	
O=c1ccn([C@@H]2O[C@H](COP(=O)(O)O)[C@@H](O)[C@H]2O)c(=O)[nH]1 [UMP, Uridine monophosphate]		1.855	effect on eIF2B GEF activity in the screen (eIF2B): a hit in this functional assay screen; MIDAS result (enrichment in the protein chamber / hit status) (eIF2Bα [1]): a strong hit in MIDAS; Tm of eIF2Bα (eIF2Bα [2]; 0.33 mM metabolite): 64.124 °C and 63.8726 °C and 64.7063 °C and 64.4005 °C; Tm of eIF2Bα (eIF2Bα [2]; 1 mM metabolite): 65.4937 °C and 64.6631 °C and 66.2688 °C and 66.0835 °C; Tm of eIF2Bα (eIF2Bα [2]; 5 mM metabolite): 67.0947 °C and 66.2443 °C and 67.297 °C and 67.2174 °C
O=c1cc[nH]c(=O)[nH]1 [Uracil]		-0.07123	
NC(N)=O [Urea]		-0.06736	

Compound	log2(corrected fold change) (eIF2Bα [1]; [3])	log2(corrected fold change) (eIF2Bα [1]; [4])	also measured
O=c1[nH]c(=O)c2[nH]c(=O)[nH]c2[nH]1 [Uric acid]		-0.09817	
O=c1ccn([C@@H]2O[C@H](COP(=O)(O)OP(=O)(O)O)[C@@H](O)[C@H]2O)c(=O)[nH]1 [Uridine 5-diphosphate]		-0.03147	
O=c1ccn([C@@H]2O[C@H](COP(=O)(O)OP(=O)(O)OP(=O)(O)O)[C@@H](O)[C@H]2O)c(=O)[nH]1 [Uridine 5-triphosphate]	-0.0457		
O=c1ccn([C@@H]2O[C@H](CO)[C@@H](O)[C@H]2O)c(=O)[nH]1 [Uridine]	0.009821		
O=c1[nH]c(=O)c2nc[nH]c2[nH]1 [Xanthine]		-0.1163	
O=c1[nH]c(=O)c2ncn([C@@H]3O[C@H](COP(=O)(O)O)[C@@H](O)[C@H]3O)c2[nH]1 [Xanthosine 5-monophosphate]		-0.169	
OC[C@H]1O[C@@H](n2cnc3c(O)nc(O)nc32)[C@H](O)[C@@H]1O [Xanthosine]	0.0001312		
O=C(O)c1cc(O)c2cccc(O)c2n1 [Xanthurenic acid]	-0.07533		
OC[C@@H](O)[C@H](O)[C@@H](O)CO [Xylitol]		-0.08707	
CCC(C)C(=O)NCC(=O)O (centres unmarked) [a-Methylbutyrylglycine]	-0.07333		
O=C(O)/C=C(/CC(=O)O)C(=O)O [cis-Aconitic acid]	0.003317		
O=c1ccn([C@H]2C[C@H](O)[C@@H](COP(=O)(O)OP(=O)(O)OP(=O)(O)O)O2)c(=O)[nH]1 [dUTP]		-0.4569	
N[C@@H](Cc1ccc(O)c(I)c1)C(=O)O [iodotyrosine]			MIDAS result (enrichment in the protein chamber / hit status) (eIF2Bα [1]): significantly enriched
Benzoate		0.4135	
Cytidine monophosphate		1.354	
D-Glucose 6-phosphate		-0.1344	
Glucose-6-phosphate			Tm of eIF2Bα (eIF2Bα [2]; 0.33 mM metabolite): 64.7198 °C and 64.0494 °C and 65.062 °C and 64.7755 °C; Tm of eIF2Bα (eIF2Bα [2]; 1 mM metabolite): 65.3152 °C and 64.2994 °C and 65.8081 °C and 65.8236 °C; Tm of eIF2Bα (eIF2Bα [2]; 3.3 mM metabolite): 65.2749 °C and 64.6195 °C and 65.7728 °C and 65.1105 °C; Tm of eIF2Bα (eIF2Bα [2]; 10 mM metabolite): 66.5112 °C and 65.3473 °C and 66.6482 °C and 66.6125 °C
Orotidine 5-monophosphate			log2(corrected fold change) (eIF2Bα [1]): 0.07073
PIP2		0.1728	
PIP3		0.2943	
Phosphatidic Acid		0.1983	
Phosphatidylcholine		-0.03855	
Phosphatidylethanolamine		0.09167	
Phosphatidylglycerol		0.1451	
Phosphatidylserine		0.1166	
Stachyose	-0.02264		
